The record followed here is paper PMC10020666, “Oxidation modulates LINGO2-induced inactivation of large conductance, Ca^2+-activated potassium channels” (The Journal of Biological Chemistry, 2023).

Experiment [1] relates to BK:LINGO2 channels. Description: Effect of oxidizing/reducing agents on BK:LINGO2 currents (inside-out patch, step to +160 mV). Format: cell-based, rabbit BKα, human LINGO2. The settings on record: 200 μM Ch-T, 100 nM Ca2+. How it is done: (§1) All excised patch experiments were performed at 37 °C in 140 mM symmetrical K^+ solutions which contained 140 mM KCl, 10 mM glucose, 10 mM Hepes, and either 1 mM ethylene glycol-bis(β-amino ether)-N,N,N′,N′-tetraacetic acid (EGTA (for free [Ca^2+] 100 nM to 300 nM) or 1 mM hydroxyethylethylenediaminetriacetic acid (HEDTA for free [Ca^2+] 1 μM to 10 μM) and the pH of all solutions was adjusted to 7.2 with KOH. These solutions were made with double-distilled, deionized, filtered water from a MilliQ water purification system. The pipette solution contained 100 nM free Ca^2+. We used “Chelator” (https://www.ru.nl/animal/research/chelator/) to calculate the total amount of Ca^2+ required, as per Schoenmakers et al., ([40]) and free Ca^2+ concentrations were checked with a Ca^2+ sensitive electrode.
(§2) During experiments, the dish containing HEK cells was superfused with Hanks solution, which contained (in mM) 129.8 Na^+, 5.8 K^+, 135 Cl^-, 4.17 HCO3^-, 0.34 HPO4^2-, 0.44 H2PO4^-, 1.8 Ca^2+, 0.9 Mg^2+, 0.4 SO4^2-, 10 glucose, 2.9 sucrose, and 10 Hepes, and its pH was adjusted to 7.4 with NaOH. In addition, the patch under study was continuously superfused by means of a close delivery system consisting of a pipette (tip diameter 200 μm) placed approximately 300 μm away from the cell. This could be switched, with a dead-space time of around 5 s, to a solution containing a drug.
(§3) Electrodes were pulled from Corning borosilicate glass (1.5 mm O.D. × 0.86 mm I.D.) using a Sutter P-97 pipette puller and fire polished using a Narashige MF 83 microforge. Pipettes had resistances of 2 to 5 MΩ when filled with recording solutions and series resistance was compensated by up to 80%. Standard single-channel patch clamp recording methods were used. Voltage clamp commands were delivered via an Axopatch 200B patch clamp amplifier (Axon Instruments) connected to a Digidata 1322A AD/DA converter (Axon Instruments) interfaced to computers running pClamp software (Axon Instruments). Data was acquired at 100 KHz and filtered at 2 KHz or 5 KHz. Patches were held at either −60 mV or −100 mV and depolarized in 20 mV increments to 200 mV. Residual capacitance and leakage currents were subtracted using either a P/4 protocol or offline by manual leak subtraction.
(§4) The human LINGO2 transcript used [NM_001354575.2] was untagged in a pcDNA 3.1 vector (VectorBuilder). The α subunit of the rabbit BK channel was isolated from rabbit urethral smooth muscle and cloned using the pcDNA TOPO DNA cloning kit (Life Technologies). The identifiesd transcript corresponded to the ZERO variant of mouse BKα and to variant 2 (NM_002247.3) of human BKα. We used 100 ng ml^−1 cDNA for BKα only transfections, whereas a 100:500 ng ml^−1 cDNA ratio was used for BKα:LINGO2 and BKα:LINGO1 cotransfections for inside-out patch recordings. GFP (150 ng ml^−1) was included in all transfections except those used for Figure 2, C and D. cDNA was transiently transfected into HEK cells using lipofectamine. Site-directed mutagenesis used the Phusion kit (Thermo Fisher Scientific) method ([41]) and all mutations were confirmed by sequencing.
HEK293 cells were cultured in Dulbecco's modified Eagle's medium + MEM media containing 10% fetal bovine serum and 1% Penicillin-Streptomycin antibiotics at 37 °C, and 95% humidifying incubator containing 5% CO2. Subculturing was done by 0.05% Trypsin-EDTA solution.
All data is presented as mean ± SD and was analyzed with Prism software (GraphPad). Individual data points are also shown in bar charts. Statistical differences were assessed using either paired or unpaired nonparametric tests (Wilcoxin signed-rank test, Mann–Whitney test), or the extra sum of squares F-test, as appropriate. Comparisons of three or more nonparametric data sets used Friedman’s test followed by Dunn’s test for multiple comparisons, whereas ANOVA was used for three or more parametric data sets. p < 0.05 was taken as significant.

Experiment [2] has as its system BK:LINGO2 channels. The experiment in a line: Effect of Ch-T on BK:LINGO2 currents at different voltages (GV curves). Format: cell-based, rabbit BKα, human LINGO2. How it is done: as §1, §2, §3
as §4, with “sequencing. […]” for “sequencing.”
G was derived from peak currents according to Ohm’s law[1] […] Summary data was expressed as the […]. […] For BK constructs, data from each patch was normalized to the peak conductance measured in either 1 μM or 10 μM Ca^2+ to obtain Gmax, and curves were constrained to the Gmax value obtained in this. […]

The next experiment relates to BKα currents. Description: Effect of Ch-T on BKα currents in absence of LINGO2 (inside-out patch). Format: cell-based, rabbit. Here is the method:
as §1
During experiments, the dish containing HEK cells was superfused with Hanks solution, which contained (in mM) 129.8 Na^+, 5.8 K^+, 135 Cl^-, 4.17 HCO3^-, 0.34 HPO4^2-, 0.44 H2PO4^-, 1.8 Ca^2+, 0.9 Mg^2+, 0.4 SO4^2-, 10 glucose, 2.9 sucrose, and 10 Hepes, and its pH was adjusted to 7.4 with NaOH. […]
(§5) All data is presented as mean ± SD and was analyzed with Prism software (GraphPad). […] Statistical differences were assessed using either paired or unpaired nonparametric tests (Wilcoxin signed-rank test, Mann–Whitney test), or the extra sum of squares F-test, as appropriate. […]

A further experiment concerns BK:LINGO2 M605L mutant. The experiment in a line: Effect of Ch-T on BK:LINGO2 M605L currents (inside-out patch). Format: cell-based, rabbit BKα, human LINGO2. Here is the method:
as §1, §2, §3
The human LINGO2 transcript used [NM_001354575.2] was untagged in a pcDNA 3.1 vector (VectorBuilder). The α subunit of the rabbit BK channel was isolated from rabbit urethral smooth muscle and cloned using the pcDNA TOPO DNA cloning kit (Life Technologies). […]
as §5

The test system of a further experiment is BK:LINGO2 M603L mutant. Description: Effect of Ch-T on BK:LINGO2 M603L currents (inside-out patch). The format is cell-based, rabbit BKα, human LINGO2. How it is done:
as §1, §2
Electrodes were pulled from Corning borosilicate glass (1.5 mm O.D. × 0.86 mm I.D.) using a Sutter P-97 pipette puller and fire polished using a Narashige MF 83 microforge. Pipettes had resistances of 2 to 5 MΩ when filled with recording solutions and series resistance was compensated by up to 80%. Standard single-channel patch clamp recording methods were used. […]
as §5

The subject of a further experiment is BKα:LINGO2. Description: Effect of Ch-T on steady-state voltage-dependent inactivation (double pulse protocol). The format is cell-based, rabbit BKα, human LINGO2. The settings on record: 200 μM Chloramine-T, 2 min, 100 nM Ca2+, control inactivation V1/2 36±5 mV, n = 6. Here is the method:
All excised patch experiments were performed at 37 °C in 140 mM symmetrical K^+ solutions which contained 140 mM KCl, 10 mM glucose, 10 mM Hepes, and either 1 mM ethylene glycol-bis(β-amino ether)-N,N,N′,N′-tetraacetic acid (EGTA (for free [Ca^2+] 100 nM to 300 nM) or 1 mM hydroxyethylethylenediaminetriacetic acid (HEDTA for free [Ca^2+] 1 μM to 10 μM) and the pH of all solutions was adjusted to 7.2 with KOH. These solutions were made with double-distilled, deionized, filtered water from a MilliQ water purification system. The pipette solution contained 100 nM free Ca^2+. We used “Chelator” (https://www.ru.nl/animal/research/chelator/) to calculate the total amount of Ca^2+ required, as per Schoenmakers et al., ([40]) and free Ca^2+ concentrations were checked with a Ca^2+ sensitive electrode. […]
Inactivation curves were fitted with a similar Boltzmann function:[3] I/Imax=1/{1+exp[±(V1/2−Vc)/K]} where, I was the current recorded at the test step, Imax was the maximal current recorded, Vc was the conditioning potential (see RESULTS), and K was the slope factor.
as §5

Molecules are shown by their SMILES. Entries after “also recorded” stand apart in the source; their conditions may differ.

Consider `Cc1ccc(S(=O)(=O)NCl)cc1` [Ch-T, Chloramine T], for which the “Effect on BK:LINGO2 inactivation” value in the experiment on BK:LINGO2 channels [1] was “caused rapid abolition of inactivation; also recorded: maintained for the duration of the recording, despite the removal of the oxidizing agent; also recorded: completely abolished inactivation and also increased peak current amplitude; also recorded: inactivation was clearly abolished”; in the experiment with BK:LINGO2 channels [1] (listed as chloramine-T), “abolished inactivation”. In addition, the “Sustained current amplitude, % of peak current, after 60 s Ch-T” value with BK:LINGO2 channels [1] (60 s, last 5 ms, control 11 ± 8%, n = 7, p < 0.05, mean ± SD) was found to be 59 ± 39%. In addition, in the experiment on BK:LINGO2 channels [1] (120 s, last 5 ms, control 11 ± 8%, n = 7, p < 0.05, mean ± SD), the “Sustained current amplitude, % of peak current, after 120 s Ch-T” value came out at 130 ± 19%. For the same molecule, the “Increase of peak current amplitude compared to control” value with BK:LINGO2 channels [1] (120 s, p < 0.05, n = 7, mean ± SD) was 35 ± 31%. The “Inactivation after Ch-T, family of voltages” value with BK:LINGO2 channels [2] (100 nM Ca2+, -100 to +200 mV) was “inactivation was practically abolished; also recorded: increased current amplitude and practically abolished inactivation”. For the same molecule, the “Half maximal activation voltage V1/2 after Ch-T” value in the experiment on BK:LINGO2 channels [2] (100 nM Ca2+, Ch-T 2 min, before Ch-T 128 ± 3 mV, n = 7, Boltzmann fit) is 86 ± 11 mV. For the same molecule, in the experiment with BK:LINGO2 channels [2] (10 μM Ca2+, 200 μM Ch-T, -100 to +200 mV), the “Inactivation and current amplitude after Ch-T, family of voltages” value was “the current amplitude was increased at all voltages recorded, and inactivation was practically abolished”. Besides, in the experiment on BK:LINGO2 channels [2] (10 μM Ca2+, -60 mV, 200 μM Ch-T, before 0.06 ± 0.02, n = 6, p < 0.05), the “G/Gmax at -60 mV in Ch-T” value is reported as 0.48 ± 0.27. Further, the “Open probability of BK:LINGO2 channels / conductance” value in the experiment on BK:LINGO2 channels [2] (Ch-T in 10 μM Ca2+) is “large increases in G across the voltage range; also recorded: increased the G/Gmax at all voltages; also recorded: significantly increased the open probability of BK:LINGO2 channels”. Moreover, the “Increase of BKα current amplitude” value in the experiment with BKα currents (200 μM Ch-T, up to 210 s, +160 mV, 100 nM Ca2+, n = 4-5, p = 0.43 (not significant)) amounted to 21 ± 27%. Besides, the “Effect on BKα current amplitude” value in the experiment on BKα currents (Ch-T, 4-min application, n = 4 to 5, p = 0.43) is reported as “failed to significantly increase the BKα current amplitude”. In the experiment with BK:LINGO2 M605L mutant (M605L vs WT, p < 0.001, Mann-Whitney test), the “Ch-T effectiveness reduction compared to WT BK:LINGO2 currents” value is approximately 50 % less effective. Also, the “Sustained current, % of peak current amplitude, after an additional 90 s Ch-T” value with BK:LINGO2 M605L mutant (M605L, 200 μM Ch-T, 60 s + additional 90 s, 100 nM Ca2+, +160 mV, control 6 ± 4%, p < 0.01) was 47 ± 25%. Besides, the “Sustained current, % of peak current amplitude, after 60 s Ch-T” value with BK:LINGO2 M605L mutant (M605L, 200 μM Ch-T, 60 s, 100 nM Ca2+, +160 mV, control 6 ± 4%, n = 10, p < 0.01) amounted to 15 ± 14%. Besides, the “Sustained current, % of peak current amplitude, at end of 210 s application” value with BK:LINGO2 M605L mutant (M605L, 200 μM Ch-T, 210 s, 100 nM Ca2+, +160 mV) is approximately 50%. In the experiment on BK:LINGO2 M603L mutant (200 μM Ch-T, 60 s, 100 nM Ca2+, +160 mV, control 10 ± 9%, n = 9, p < 0.05), the “Sustained current after 60 s Ch-T” value amounted to 17 ± 9%. Besides, in the experiment with BK:LINGO2 M603L mutant (200 μM Ch-T, 150 s, 100 nM Ca2+, +160 mV, control 10 ± 9%, n = 9, p < 0.05), the “Sustained current after 150 s Ch-T” value is on record as 20 ± 12%. For the same molecule, in the experiment on BK:LINGO2 M603L mutant (Ch-T, 7 to 9 patches), the “Sustained current during Ch-T (summary in figure legend)” value is approximately 20%. For the same molecule, the “Steady-state voltage-dependent inactivation after Ch-T” value in the experiment on BKα:LINGO2 was “no time- or voltage-dependent inactivation was observed”; in the experiment with BKα:LINGO2 (listed as Chloramine-T) it was “compl etel y abol i shed”.
